Laboratory results as given in patent publication US6160008A, “Pharmaceutical compositions comprising S-alkylisothiouronium derivatives” (priority 1996, dated 2000).
Entries after “also recorded” stand apart in the source; their conditions may differ.

Experiments:
[1] = Biochemical indices of mice blood serum, chronic experiment (Table 9); type: in vivo, F1 (C57B1×CBA); settings: for Body mass / Glucose / Total cholestrol / Total protein: 100 mg/kg i.v.; for Total protein: in g/L (unit assumed)
Experimental: The effect of S-ethylisothiouronium diethylphosphate on body constituents was estimated in chronic and acute experiments. These experiments were conducted on F1 (C57B1×CBA) line mice and biochemical tests were made after a single administration of S-ethylisothiouronium diethylphosphate, injected intravenously at doses of 100 mg/kg (in the chronic experiment) and 500 mg/kg (in the acute experiment).
In the acute experiment, blood was taken 30, 60 and 75 minutes after the administration of the medicine. In the chronic experiment (which lasted 30 days), blood was daily examined 1 hour after the injection. Terms of the study were 1, 7, 14, and 21 days. The concentrations of total protein, total cholesterol, and glucose in mice blood serum were determined by conventional methods. Total protein was determined by a biuret method, total cholesterol--by like method, glucose--by the glucose-oxidase method.
Mouse blood was obtained after rapid decapitation. Tested material was sampled at the same time of the day and on the same season.
Blood for serum was sampled into centrifuge test tubes, put into the thermostat for 30-40 minutes; the clot was outlined by a needle, then it was put into a refrigerator for 1 hour+4° C. After cooling it was centrifuged at 3000 RPM during 10-15 minutes. Serum with no signs of hemolysis was sampled into a clean tube. All quantitative indices of the blood biochemical characteristics were obtained by spectrophotometric measurements. Calibration curves to determine total protein and cholesterol were constructed in advance.

[2] = system: system hemodynamic indices during hemorrhagic shock; experiment: System hemodynamic indices during hemorrhagic shock (Table 4); type: in vivo, cats
Experimental: For the experimental model of hemorrhagic shock closely resembling acute clinical situations, acute blood loss in cats was chosen (3.2% of the body mass) which constitutes 45-47% of the blood circulation volume during 3-5 minutes. To determine maximum efficiency and effective duration, parameters of the system blood circulation were determined before blood-letting and in 30 minutes after blood-letting, as well as on the 2nd, 10th, 30th and 60th minutes after intravenous injection of the medicine.

[3] = 5 mg/kg i.v., 2 min after injection
[4] = 5 mg/kg i.v., 10 min after injection
[5] = 5 mg/kg i.v., 30 min after injection
[6] = 5 mg/kg i.v., 60 min after injection

CCSC(=N)N [S-ethylisothiouronium diethylphosphate]
Body mass ([1]; 1st day): 23.8 ± 0.1 g
Glucose ([1]; 1st day): 7.1 ± 1.4 mmol/L
Total cholestrol ([1]; 1st day): 4.7 ± 0.9 mmol/L
Total protein ([1]; 1st day): 75.6 ± 4.9
Body mass ([1]; 7th day): 24.0 ± 0.2 g
Glucose ([1]; 7th day): 8.2 ± 1.8 mmol/L
Total cholestrol ([1]; 7th day): 5.0 ± 0.6 mmol/L
Total protein ([1]; 7th day): 63.5 ± 4.4
Body mass ([1]; 14th day): 28.1 ± 0.3 g
Glucose ([1]; 14th day): 8.8 ± 1.7 mmol/L
Total cholestrol ([1]; 14th day): 3.0 ± 0.36 mmol/L
Total protein ([1]; 14th day): 72.4 ± 3.3
Body mass ([1]; 21st day): 26.1 ± 0.5 g
Glucose ([1]; 21st day): 9.9 ± 1.8 mmol/L
Total cholestrol ([1]; 21st day): 4.9 ± 0.42 mmol/L
Total protein ([1]; 21st day): 74.9 ± 2.4
Serum biochemistry in words ([1]; 100 mg/kg, chronic experiment): fluctuations of the studied parameters do not exceed the limits of physiological fluctuations
AP increase compared to the 30th minute after bleeding ([2]; 5 mg/kg i.v., 2nd minute): 88%
ALV [2, 3]: 166.6 ± 18.4 g/cm
AP [2, 3]: 122.3 ± 6.0 mm Hg
Central blood volume [2, 3]: 58.6 ± 4.1 mL
HF [2, 3]: 182.0 ± 15.0 per min.
MVC [2, 3]: 52.4 ± 6.0 mL/min/kg
Number of blood circulations [2, 3]: 2.9 ± 0.2 min
Pr [2, 3]: 202.8 ± 28.7 10^3 . din . c . cm^-3
Stroke volume [2, 3]: 1.0 ± 0.1 mL
ALV [2, 4]: 130.5 ± 15.4 g/cm
AP [2, 4]: 112.5 ± 7.6 mm Hg
Central blood volume [2, 4]: 49.2 ± 4.5 mL
HF [2, 4]: 186.0 ± 14.1 per min.
MVC [2, 4]: 46.0 ± 5.7 mL/min/kg
Number of blood circulations [2, 4]: 3.0 ± 0.2 min
Pr [2, 4]: 225.1 ± 56.6 10^3 . din . c . cm^-3
Stroke volume [2, 4]: 0.9 ± 0.1 mL
ALV [2, 5]: 75.9 ± 19.4 g/cm
AP [2, 5]: 87.5 ± 15.4 mm Hg
Central blood volume [2, 5]: 43.2 ± 4.7 mL
HF [2, 5]: 179.1 ± 12.4 per min.
MVC [2, 5]: 30.8 ± 5.5 mL/min/kg
Number of blood circulations [2, 5]: 2.4 ± 0.3 min
Pr [2, 5]: 244.7 ± 39.1 10^3 . din . c . cm^-3
Stroke volume [2, 5]: 0.6 ± 0.1 mL
ALV [2, 6]: 77.0 ± 17.0 g/cm
AP [2, 6]: 84.2 ± 18.9 mm Hg
Central blood volume [2, 6]: 45.5 ± 5.1 mL
HF [2, 6]: 166.8 ± 15.2 per min.
MVC [2, 6]: 35.7 ± 5.5 mL/min/kg
Number of blood circulations [2, 6]: 3.5 ± 0.2 min
Pr [2, 6]: 245.3 ± 62.6 10^3 . din . c . cm^-3
Stroke volume [2, 6]: 0.7 ± 0.1 mL
MVC increase ([2]; 5 mg/kg i.v., initially): 19%
Effect in hemorrhagic shock in words ([2]; hemorrhagic shock, cats): the decrease in HR was noted; also recorded: SV increased only on the 2nd minute after the medicine injection; also recorded: Alv essentially increased on the 2nd and 10th minutes; also recorded: PR increased during the whole period of observation; also recorded: practically does not lose efficiency in case of metabolic acidosis; also recorded: improves system hemodynamic indices in hemorrhagic shock conditions; also recorded: the peripheral vascular resistance increases, the stroke volume and central blood volume increase, and the work of the left ventricle improves
